Data as given in ChEMBL document CHEMBL1135885, “Designing small, nonsugar activators of antithrombin using hydropathic interaction analyses” (J Med Chem, 2002).

Columns and labels:
[1] = The equilibrium dissociation constant was measured experimentally for the compounds interaction with antithrombin.; assay type: ADME
[2] = The second order rate constant for uncatalysed inhibition of factor Xa by antithrombin was determined for the compound at […]
[3] = Equilibrium constants and K activator was determined.; assay type: ADME
[4] = delta f max at pH 6.0; assay type: ADME
[5] = delta f max at pH 7.4; assay type: ADME
[6] = Catalysed acceleration of antithrombin inhibition of factor Xa (K-uncat = 120 +/- 10 M-1.s-1)
[7] = The equilibrium dissociation constant antithrombin interaction was determined at pH 7.4; assay type: ADME

Compound: O=S(=O)(O)Oc1cc2c(c(OS(=O)(=O)O)c1)C[C@@H](OS(=O)(=O)O)[C@@H](c1ccc(OS(=O)(=O)O)c(OS(=O)(=O)O)c1)O2
- Kd [1]: 10.5 µM
- Kuncat [2]: 120 M⁻¹ s⁻¹

Compound: CO[C@H]1O[C@H](COS(=O)(=O)O)[C@@H](OC2O[C@H](C(=O)O)[C@@H](OC3O[C@H](COS(=O)(=O)O)[C@@H](O)[C@H](O)[C@H]3NS(=O)(=O)O)[C@H](O)[C@H]2O)[C@H](OS(=O)(=O)O)[C@H]1NS(=O)(=O)O (stereo partly drawn) [HEPARIN TRISACCHARIDE DEF]
- K act [3]: 45000 M⁻¹ s⁻¹
- Delta Fmax [4]: 34%
- Delta Fmax [5]: 34%
- Fold_increase [6]: 320
- Kd [7]: 66 µM
- Kd [2]: 2 µM
